Assays:
[1] = system: rat hepatic microsomal PTPases; settings: test compound 50 μM; rat hepatic microsomal fraction; substrate 50 uM, 37 deg.C
[2] = molecular target: T1, Human recombinant PTP1B (hPTP1B) (Homo sapiens, UniProt P18031)
T1 sequence (P18031 1-435): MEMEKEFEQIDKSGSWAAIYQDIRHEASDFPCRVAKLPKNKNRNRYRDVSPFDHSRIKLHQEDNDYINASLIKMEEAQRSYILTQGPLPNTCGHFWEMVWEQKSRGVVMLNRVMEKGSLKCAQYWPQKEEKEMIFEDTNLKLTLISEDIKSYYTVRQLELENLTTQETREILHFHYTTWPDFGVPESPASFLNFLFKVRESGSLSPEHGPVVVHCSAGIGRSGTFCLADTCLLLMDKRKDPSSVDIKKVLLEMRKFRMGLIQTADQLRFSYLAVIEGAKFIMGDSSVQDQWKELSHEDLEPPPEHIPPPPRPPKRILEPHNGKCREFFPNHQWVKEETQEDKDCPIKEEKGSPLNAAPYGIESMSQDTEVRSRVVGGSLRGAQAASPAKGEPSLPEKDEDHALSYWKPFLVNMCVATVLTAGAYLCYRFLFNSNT

[3] = literature study; cited from earlier work

Row | SMILES | % Change from Control (PTPase activity) [1] | IC50 [2] | carcinogenicity [3]
1 | O=C(O)COc1c(Br)cc(-c2cccc3sc4ccccc4c23)cc1Br [Example 14, [2,6-Dibromo-4-(dibenzothiophen-1-yl)-phenoxy]-acetic acid] | -74.88% |  | 
2 | O=C(O)[C@@H](Cc1ccccc1)Oc1c(Br)cc(-c2cccc3sc4ccccc4c23)cc1Br [Example 19, (R)-2-[2,6-Dibromo-4-(dibenzothiophen-1-yl)-phenoxy]-3-phenyl-propionic acid] | -81.43% | 1.33 µM | 
3 | O=C(O)COc1ccc(-c2cccc3sc4ccccc4c23)cc1 [Example 12, [4-(Dibenzothiophen-1-yl)-phenoxy]-acetic Acid] | -19.49% |  | 
4 | Oc1ccc(-c2c(Br)ccc3sc4ccccc4c23)cc1 [Example 6, 4-(2-Bromo-dibenzothiophen-1-yl)-phenol] | -31.13% |  | 
5 | O=C(O)[C@@H](CCN1C(=O)c2ccccc2C1=O)Oc1c(Br)cc(-c2c(Br)ccc3sc4ccccc4c23)cc1Br [Example 21, (R)-2-[2,6-Dibromo-4-(2-bromo-dibenzothiophen-1-yl)-phenoxy]-4-(1,3-dioxo-1,3-dihydro-isoindol-2-yl)-butyric acid] | -87.44% | 1.39 µM | 
6 | Oc1c(Br)cc(-c2cccc3sc4ccccc4c23)cc1Br [Example 7, 2,6-Dibromo-4-(dibenzothiophen-1-yl)-phenol] | -18.53% | 1.89 µM | 
7 | Oc1ccc(-c2cccc3sc4ccccc4c23)cc1 [Example 3, 4-(Dibenzothiophen-1-yl)-phenol] | -51.63% |  | 
8 | CN(C)c1ccc(-c2cccc3sc4ccccc4c23)cc1 [compound A (R=NMe2, R'=H)] |  |  | inactive
9 | COC(=O)COc1ccc(-c2c(Br)ccc3sc4ccccc4c23)cc1 [Example 10, [4-(2-Bromo-dibenzothiophen-1-yl)-phenoxy]-acetic Acid Methyl Ester] | -21.11% |  | 
10 | O=C(O)[C@@H](Cc1ccccc1)Oc1c(Br)cc(-c2c(Br)ccc3sc4ccccc4c23)cc1Br [Example 20] | -75.69% | 0.604 µM | 
11 | O=C(O)COc1ccc(-c2c(Br)ccc3sc4ccccc4c23)cc1 [Example 13, [4-(2-Bromo-dibenzothiophen-1-yl)-phenoxy]-acetic Acid] | -42.62% |  | 

Reference: patent publication US6001867A, “1-aryl-dibenzothiophenes” (American Home Products Corporation, priority 1999, dated 1999)
